The source of these data is patent US11548897B2, “Crystalline forms of a triazolopyrimidine compound” (NOVARTIS AG, priority 2016, dated 2023).

Series [1] in a line: Stability of solid form to humidity and temperature. The series is classed as physicochemical. On the procedure:
Dynamic vapor sorption was performed on a Surface Measurement Systems DVS Advantage instrument. Approximately 10 mg of material was loaded into a sample pan. The samples were exposed to sorption/desorption cycles in 10% relative humidity (RH) steps over the range of 50%-90%-0%-90%-50% RH at 25° C. and 50° C. A target equilibrium condition of mass change less than 0.002% over 5 min was set, with minimum and maximum equilibrium periods of 10 and 360 min, respectively. The carrier gas was nitrogen with a flow rate of 100 mL/min. The system is calibrated with saturated salt solutions. The weight percentage change (wt %) of the sample at each stage was measured and plotted versus the target partial pressure.

Series [2] deals with H3K27 methylation in G401 cell. The experiment in a line: ELISA (H3K27 methylation) assay. Format: cell-based. The conditions noted are these: Homo sapiens, G-401; ELISA Qualified, G401 cells, 48 h; read-out: (c) IC50. Here is the method:
ELISA (H3K27 Methylation) Assay
Representative compounds of the present invention were serially and separately diluted 3-fold in DMSO to obtain a total of eight or twelve concentrations. Then the compounds were added to G401 cell cultured in 384-well plate at 1:500 dilution to obtain the highest concentration of 20 μM. The cells were further cultured for 48 h before ELISA procedure.
Histone extraction: Cells, in 384-well plate, were washed with PBS (10×PBS buffer (80 g NaCl (Sigma, S3014), 2 g KCl (Sigma, 60128), 14.4 g Na2HPO4 (Sigma, S5136), 2.4 g KH2PO4 (Sigma, P9791) to 1 L water, pH to 7.4) and lysed with the addition of lysis buffer (0.4N HCl; 45 μL per well). The plate was gently agitated at 4° C. for 30 min. The cell lysate was neutralized with neutralization buffer (0.5 M sodium phosphate dibasic, pH 12.5, 1 mM DTT; 36 μL per well). The plate was agitated to ensure the lysates were well mixed prior to the ELISA protocol.
ELISA protocol: Cell lysates were transferred to the wells of a 384-well plate and the final volume was adjusted to 50 μL per well with PBS. The plate was sealed, centrifuged at 2,000 rpm for 2 min and incubated at 4° C. for about 16 h. […] The signal was read using a PerkinElmer Envision Reader. The H3K27 methylation readouts were normalized using H3 signal and then percentage inhibition was calculated against the samples treated with DMSO. […]
(ELISA stands for enzyme-linked immunosorbent assay.)

Series [3] has as its system B cell lymphoma cell KARPAS422. Description: Analysis of cell proliferation. The series is classed as cell-based. The conditions noted are these: Homo sapiens, KARPAS-422, 336 h; KARPAS422, after 14 days of treatment; read-out: antiproliferative activities (IC50 values). Here is the method: Analysis of Cell Proliferation
B cell lymphoma cell KARPAS422 was cultured using standard cell culture conditions in RPMI-1640 (Invitrogen, cat #11875) supplemented with 15% FBS (Invitrogen, cat #10099-141) in humidified incubator at 37° C., 5% CO2. To assess the effect of PRC2 inhibition on cell proliferation, exponentially growing cells were seeded at a density of 1×10^5 cells/mL in 12-well plate (Corning, cat #CLS3513). After cell seeding, a compound of the present invention was added to the cell media (in concentrations ranging from 0 to 100 μM, 3× dilution series). Viable cell numbers were determined every 3-4 days for up to 14 days using Vi-CELL (Beckman Coulter). On days of cell counting, fresh growth media and compound were replenished and cells split back to a density of 1×10^5 cells/mL. Total cell number is expressed as split-adjusted viable cells per mL. The dose response curves and IC50 values were generated using Prism.

Series [4] in a line: Solubility in selected solvents (Table 2). Format: physicochemical. The conditions noted are these: thermodynamic from solid; for solubility at 2 h: 50° C.; for solubility: rt. On the procedure: To 10 mg of compound X in a sample vial at 50° C., selected solvent was added dropwise. The addition of solvent was stopped when a clear solution was reached or when the amount of solvent reached 1 mL. The resulting mixture was stirred continuously at 50° C. for 2 h, then cooled to rt, and stirred overnight. The solubilities at 50° C. and rt were determined by the homogeneity of the resulting mixture.

Series [5] is described as follows: Aqueous solubility (pH 7.4, simulated gastric fluid). Format: physicochemical.
Series [6] can be described thus: Rodent pharmacokinetic studies, exposure versus dose. The note with it: higher doses. Format: in vivo.
[7] abbreviates: aqueous with cosolvent or surfactant or cyclodextrin, Acetone/H2O (1/1).
Setting [8] is: aqueous with cosolvent or surfactant or cyclodextrin, EtOH/H2O (1/1).
[9] abbreviates: organic solvent or mixture, ACN.
[10] abbreviates: organic solvent or mixture, Acetone.
Where [11] appears, read: organic solvent or mixture, EtOAc.
Where [12] appears, read: organic solvent or mixture, EtOH.
Where [13] appears, read: organic solvent or mixture, Heptane.
The mark [14] stands for this setting: organic solvent or mixture, IPA.
Setting [15] is: organic solvent or mixture, MTBE.
Setting [16] is: organic solvent or mixture, MeOH.
The mark [17] stands for this setting: organic solvent or mixture, THF.

For `Cc1ncccc1-c1cnc(NCc2c(F)ccc3c2CCO3)n2cnnc12.Cl` [Form HA, N-((5-Fluoro-2,3-dihydrobenzofuran-4-yl)methyl)-8-(2-methylpyridin-3-yl)-[1,2,4]triazolo[4,3-c]pyrimidin-5-amine hydrochloride], in series [1], the “stability to humidity and temperature” value is given as “acceptable stability”.

As to `Cc1ncccc1-c1cnc(NCc2c(F)ccc3c2CCO3)n2cnnc12` [Compound A, N-((5-Fluoro-2,3-dihydrobenzofuran-4-yl)methyl)-8-(2-methylpyridin-3-yl)-[1,2,4]triazolo[4,3-c]pyrimidin-5-amine], the IC50 (as a rule, the concentration needed to halve the response being measured) worked out at 2.6 nM in series [2] and 3 nM in series [3]. The solubility at 2 h in series [4] (setting [7]), in series [4] (setting [8]), in series [4] (setting [9]), in series [4] (setting [10]), in series [4] (setting [11]) and in series [4] (setting [12]) was less than 10000 µg/mL in each case. Besides, the solubility at 2 h in series [4] (setting [13]), in series [4] (setting [14]), in series [4] (setting [15]), in series [4] (setting [16]), in series [4] (setting [17]) and in series [4] (Water) was less than 10000 µg/mL in each case. Moreover, the solubility in series [4] (setting [7]), in series [4] (setting [8]), in series [4] (setting [9]), in series [4] (setting [10]), in series [4] (setting [11]) and in series [4] (setting [12]) was less than 10000 µg/mL throughout. Moreover, the solubility in series [4] (setting [13]), in series [4] (setting [14]), in series [4] (setting [15]), in series [4] (setting [16]), in series [4] (setting [17]) and in series [4] (Water) was less than 10000 µg/mL throughout. The aqueous solubility result in series [5] (physiologically relevant pH level of 7.4) and in series [5] (simulated gastric fluid (SGF)) was “low” throughout. Besides, the “exposure relative to dose” value in series [6] is “under-proportional”.

For the compound `Cc1ncccc1-c1cnc(NCc2c(F)ccc3c2CCO3)n2cnnc12.Cl` [Compound X, N-((5-Fluoro-2,3-dihydrobenzofuran-4-yl)methyl)-8-(2-methylpyridin-3-yl)-[1,2,4]triazolo[4,3-c]pyrimidin-5-amine hydrochloride], the solubility – broadly, how much of the substance goes into solution per volume – at 2 h was more than 50000 µg/mL in series [4] (setting [7]); more than 50000 µg/mL in series [4] (setting [8]); less than 10000 µg/mL in series [4] (setting [9]); less than 10000 µg/mL in series [4] (setting [10]); less than 10000 µg/mL in series [4] (setting [11]); less than 10000 µg/mL in series [4] (setting [12]). For the same compound, the solubility at 2 h in series [4] (setting [13]) was less than 10000 µg/mL; in series [4] (setting [14]), less than 10000 µg/mL; in series [4] (setting [15]), less than 10000 µg/mL; in series [4] (setting [16]) it was more than 10000 µg/mL; in series [4] (setting [17]) it was less than 10000 µg/mL; in series [4] (Water) it was less than 10000 µg/mL. The solubility was less than 50000 µg/mL in series [4] (setting [7]); less than 50000 µg/mL in series [4] (setting [8]); less than 10000 µg/mL in series [4] (setting [9]); less than 10000 µg/mL in series [4] (setting [10]); less than 10000 µg/mL in series [4] (setting [11]); less than 10000 µg/mL in series [4] (setting [12]). Besides, the solubility is less than 10000 µg/mL in series [4] (setting [13]); less than 10000 µg/mL in series [4] (setting [14]); less than 10000 µg/mL in series [4] (setting [15]); more than 10000 µg/mL in series [4] (setting [16]); less than 10000 µg/mL in series [4] (setting [17]); less than 10000 µg/mL in series [4] (Water). Further, the “exposure relative to dose” value in series [6] is on record as “dose-proportional”.
